What was measured:
Format in all cases: in vitro ADME
[1] = molecular target: T1, UGT2B7 (Homo sapiens, UniProt P16662); assay: Recombinant UGT2B7-catalyzed 4-MU glucuronidation inhibition; details: pH 7.4, probe 4-methylumbelliferone (4-MU), UGT2B7, 100 μM of compound, 4-MU substrate, read-out: residual activity
T1 construct: purchased BD Gentest Corp. (Woburn, MA, USA); host or cells: baculovirus-infected insect cells
T1 sequence (P16662 24-529): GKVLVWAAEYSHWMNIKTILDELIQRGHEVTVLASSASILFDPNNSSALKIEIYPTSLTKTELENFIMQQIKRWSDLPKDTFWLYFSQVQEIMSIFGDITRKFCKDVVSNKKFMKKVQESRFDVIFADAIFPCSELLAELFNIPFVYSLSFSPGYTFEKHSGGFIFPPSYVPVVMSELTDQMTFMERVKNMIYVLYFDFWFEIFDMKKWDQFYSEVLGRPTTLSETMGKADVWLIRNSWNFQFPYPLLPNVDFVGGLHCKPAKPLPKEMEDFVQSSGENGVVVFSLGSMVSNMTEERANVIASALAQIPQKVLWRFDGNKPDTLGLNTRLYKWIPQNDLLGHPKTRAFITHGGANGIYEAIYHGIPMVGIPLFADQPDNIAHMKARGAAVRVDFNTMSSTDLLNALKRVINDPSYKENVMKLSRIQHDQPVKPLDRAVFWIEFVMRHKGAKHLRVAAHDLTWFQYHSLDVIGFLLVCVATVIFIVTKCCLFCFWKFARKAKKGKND
From the text: (§1) 4-Methylumbelliferone (4-MU), 4-methylumbelliferone-β-D-glucuronide (4-MUG), Tris-HCl, 7-hydroxycoumarin, and uridine-5′-diphosphoglucuronic acid (UDPGA) (trisodium salt) were purchased from Sigma-Aldrich (St. Louis, MO). Recombinant human UGT isoforms (UGT1A1, UGT1A3, UGT1A4, UGT1A6, UGT1A7, UGT1A8, UGT1A9, UGT1A10, UGT2B4, UGT2B7, and UGT2B15) expressed in baculovirus-infected insect cells were obtained from BD Gentest Corp. (Woburn, MA, USA). Ophiopogonin D (OD), ophiopogonin D′ (OD′), methylophiopogonanone A (MA), methylophiopogonanone B (MB), and ruscorectal (RU) were purchased from Sichuan Weikeqi Biotechnology Company (Chengdu, Sichuan, China). The purity of these compounds was above 95%. All other reagents were of HPLC grade or of the highest grade commercially available.
(§2) 4-MU, the nonspecific probe substrate for all the UGT isoforms except UGT1A4, was used in the present study to initially screen the inhibition potential of maidong's components towards UGT isoforms as previously reported. In brief, the incubation system (total volume = 200 μL) consisted of recombinant UGTs, 5 mM UDPGA, 5 mM MgCl2, 50 mM Tris-HCl (pH = 7.4), and 4-MU in the absence or presence of different concentrations of maidong's components. The compounds were dissolved in DMSO, and the final concentration of DMSO was below 0.5% (v/v). The used incubation time and protein concentration were previously determined to ensure the reaction rate within the linear range. The 4-MU concentration was equal to known K m or S 50 values for each UGT isoform. After 5 min preincubation at 37°C, the incubation reaction was initiated via adding UDPGA to the mixture system. The reactions were quenched by adding 100 μL acetonitrile with 7-hydroxycoumarin (100 μM) as internal standard. Centrifuged at 20000 ×g for 10 min, an aliquot of supernatant was transferred to an autoinjector vial for HPLC analysis. The HPLC system (Shimadzu, Kyoto, Japan) contained a SCL-10A system controller, two LC-10AT pumps, a SIL-10A autoinjector, and a SPD-10AVP UV detector. Chromatographic separation was carried out using a C18 column (4.6 × 200 mm, 5 μm, Kromasil) at a flow rate of 1 mL/min and UV detector at 316 nm. The mobile phase consisted of acetonitrile (A) and H2O containing 0.5% (v/v) formic acid (B). The following gradient condition was used: 0–15 min, 95–40% B; 15–20 min, 10% B; 20–30 min, 95% B.

[2] = molecular target: T2, UGT1A8 (Homo sapiens, UniProt Q9HAW9); assay: Recombinant UGT1A8-catalyzed 4-MU glucuronidation inhibition; details: for activity at 100 µM: UGT1A8, 100 μM of compound, 4-MU substrate, read-out: residual activity
T2 construct: purchased BD Gentest Corp. (Woburn, MA, USA); host or cells: baculovirus-infected insect cells
T2 sequence (Q9HAW9 26-530): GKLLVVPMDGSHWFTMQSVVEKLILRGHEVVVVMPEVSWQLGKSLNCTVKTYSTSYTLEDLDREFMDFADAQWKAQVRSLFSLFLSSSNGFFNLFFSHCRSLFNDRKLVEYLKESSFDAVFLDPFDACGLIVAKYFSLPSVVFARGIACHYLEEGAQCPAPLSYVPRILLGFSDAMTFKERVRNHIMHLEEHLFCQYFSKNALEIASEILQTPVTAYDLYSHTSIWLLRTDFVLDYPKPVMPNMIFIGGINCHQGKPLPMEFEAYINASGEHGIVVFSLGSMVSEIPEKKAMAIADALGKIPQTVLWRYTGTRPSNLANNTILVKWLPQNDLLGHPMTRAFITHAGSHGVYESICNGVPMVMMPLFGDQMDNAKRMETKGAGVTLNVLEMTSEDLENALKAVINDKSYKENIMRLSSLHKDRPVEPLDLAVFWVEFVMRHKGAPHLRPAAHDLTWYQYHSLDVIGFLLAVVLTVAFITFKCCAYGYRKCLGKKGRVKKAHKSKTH
From the text: as §1, §2
To determine the inhibition kinetic type and parameters (K i), the reaction velocity (V) was determined at multiple concentrations of maidong's components and 4-MU (or TFP). Dixon plot and Lineweaver-Burk plot were used to fit the data. The inhibition kinetic type was evaluated through determining the intersection point in the Dixon and Lineweaver-Burk plots.
K m value is the substrate concentration in which the velocity reached half of the maximum velocity (V max) of the reaction. K i value is the inhibition constant.

[3] = molecular target: T3, UGT2B15 (Homo sapiens, UniProt P54855); assay: Recombinant UGT2B15-catalyzed 4-MU glucuronidation inhibition; details: pH 7.4, probe 4-methylumbelliferone (4-MU), UGT2B15, 100 μM of compound, 4-MU substrate, read-out: residual activity
T3 construct: purchased BD Gentest Corp. (Woburn, MA, USA); host or cells: baculovirus-infected insect cells
T3 sequence (P54855 24-530): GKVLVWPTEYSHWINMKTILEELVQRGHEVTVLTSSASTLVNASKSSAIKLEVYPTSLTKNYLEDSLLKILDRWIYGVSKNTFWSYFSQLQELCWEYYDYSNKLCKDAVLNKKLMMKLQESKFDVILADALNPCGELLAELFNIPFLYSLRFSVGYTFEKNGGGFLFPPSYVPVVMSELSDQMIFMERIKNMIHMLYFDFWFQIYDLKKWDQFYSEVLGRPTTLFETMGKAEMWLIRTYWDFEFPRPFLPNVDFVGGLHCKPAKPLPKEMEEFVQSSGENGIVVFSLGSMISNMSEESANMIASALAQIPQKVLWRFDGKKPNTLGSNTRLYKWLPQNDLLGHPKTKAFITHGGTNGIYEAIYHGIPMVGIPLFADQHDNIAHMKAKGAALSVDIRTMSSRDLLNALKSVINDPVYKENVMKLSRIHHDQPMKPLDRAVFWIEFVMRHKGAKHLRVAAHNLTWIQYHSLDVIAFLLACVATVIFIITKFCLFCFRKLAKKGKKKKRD
From the text: as §1, §2

[4] = human, pH 7.4, probe 4-methylumbelliferone (4-MU)

Compound	activity at 100 µM [1] [%]	activity at 100 µM [2, 4] [%]	activity at 100 µM [3] [%]	Ki [2] [µM]	inhibition type ([2]; UGT1A8, Dixon and Lineweaver-Burk plots)	inhibition at 100 µM ([2]; human, pH 7.4, probe 4-methylumbelliferone (4-MU), UGT1A8, at 100 μM, read-out: inhibition percent) [%]
Cc1c(O)c(C)c2c(c1O)C(=O)[C@H](Cc1ccc3c(c1)OCO3)CO2 [MA, methylophiopogonanone A]	23.3 ± 16.7	20.5 ± 2.1	23.8 ± 2.8	–	–	–
COc1ccc(C[C@@H]2COc3c(C)c(O)c(C)c(O)c3C2=O)cc1 [MB, methylophiopogonanone B]	82.8 ± 14.5	85 ± 4.5	56.1 ± 9.8	–	–	–
C[C@@H]1CC[C@@]2(OC1)O[C@H]1C[C@H]3[C@@H]4CC=C5C[C@@H](O)C[C@@H](O[C@@H]6O[C@H](C)[C@H](O)[C@H](O[C@@H]7OC[C@@H](O)[C@H](O)[C@H]7O)[C@H]6O[C@@H]6O[C@@H](C)[C@H](O)[C@@H](O)[C@H]6O)[C@]5(C)[C@H]4CC[C@]3(C)[C@H]1[C@@H]2C [OD, ophiopogonin D]	85.4 ± 7.3	17.3 ± 0.9	36.9	40.1	competitively inhibited	82.7
C[C@@H]1CC[C@@]2(OC1)O[C@H]1C[C@H]3[C@@H]4CC=C5C[C@@H](O[C@@H]6O[C@H](CO)[C@@H](O)[C@H](O[C@@H]7OC[C@@H](O)[C@H](O)[C@H]7O)[C@H]6O[C@@H]6O[C@@H](C)[C@H](O)[C@@H](O)[C@H]6O)CC[C@]5(C)[C@H]4CC[C@]3(C)[C@H]1[C@@H]2C [OD′, ophiopogonin D′]	77.4 ± 7.1	18.9 ± 6.6	35.5 ± 1.7	–	–	–
CC1CCC2(OC1)OC1CC3C4CC=C5CC(O)CC(O)C5(C)C4CCC3(C)C1C2C (stereo not drawn) [RU, ruscorectal]	125 ± 59	72 ± 3	55.5 ± 19.6	–	–	–
